Experimental data: US20060025458A1, “Alkylammonium compounds as antifungal and antitrypanosomal agents” (University of Connecticut, priority 2004, published 2006)

Tests used:
S. cerevisiae = assay: Liquid growth inhibition assay of S. cerevisiae (OD600); format: cell-based, Saccharomyces cerevisiae
Procedure: Strains and Growth Conditions: Wild-type (BY4741: Mata his3Δ1 leu2Δ0 met15Δ0 ura3Δ0) and mutant (hnm1Δ, psd1Δ, cki1Δ, pem1Δ, ept1Δ, cpt1Δ, eki1Δ, psd2Δ, pct1Δ, ect1Δ, pem2Δ) S. cerevisiae strains used in this study were purchased from Research Genetics (Invitrogen, USA). These strains were grown on YPD (1% yeast extract, 2% dextrose and 2% peptone) or synthetic complete medium (SD, 1.7% yeast nitrogen base, 5% ammonium sulfate and 2% dextrose). The Nigerian strain of P. falciparum was propagated in human red blood cells at 4% hematocrit by the method of Trager and Jensen (1976). Plate growth assays were performed by growing wild-type and mutant yeast strains in YPD to mid-log phase. Cultures were serially diluted 1:10 starting with a density of 3×10^7 cells/ml. The growth of cells was monitored by spotting 3 μl of each dilution onto solid medium in the absence or presence of 5 μM of G25.
Twenty-one analogs including first, second and third generation (E2a, E6, E9, E13, E24, F4, G2, G4, G5, G14, GI5, G25, H5, L1, L4, M34, M53, MS1, T3 and T4) compounds (provided by Dr. Henri Vial, City, Country) were tested (FIG. 4). The choice of the compounds was such that they represent all possible structural features introduced during the optimization process for enhancing antimalarial activity as determined using the combinatorial chemistry techniques.
The antimalarial drug G25 inhibits the growth of Saccharomyces cerevisiae. […] Growth inhibition was assessed by measuring the OD600 and comparing it to that of the wild-type strain grown under the same conditions in the absence of the compound. […] This IC50 value is in the range of the predicted intracellular concentration of G25 in P. falciparum due to the accumulative properties inside the infected erythrocytes.

C. albicans strain BWP17 = assay: Growth inhibition of C. albicans in vitro; format: cell-based, Candida albicans; conditions: read-out: IC50, C. albicans proliferation
Procedure: G15, E24 and C35 inhibited at higher concentrations (>10 μM).

[1] = system: promastigote form of L. major; assay: Growth inhibition of Leishmania major promastigotes; format: cell-based; conditions: read-out: IC50 of choline analogs in Leishmania major, WT
Procedure: For those drugs, IC50 values were determined.

[2] = system: choline transport in the wild-type strain of S. cerevisiae; assay: [methyl-3H]-choline uptake in wild-type S. cerevisiae; format: cell-based, Saccharomyces cerevisiae
Procedure: Uptake Assays: Yeast strains were grown in synthetic complete medium supplemented as required to maintain cell growth to an optical density of 0.55-0.65 at 600 nm. Cells were harvested by centrifugation at 3,200×g for 10 min at 4° C., washed twice in cold PBS and resuspended in nitrogen-free medium (SD without ammonium sulfate). […] After 3 min incubation at 30° C. with shaking, transport was immediately stopped by filtration through Whatman GF/C glass microfiber paper. The filters were washed three times with 5 ml ice-cold PBS, air dried, and analyzed in a scintillation counter. For time course uptake, 3-4×10^7 cells were incubated at 30° C. in 1 ml of nitrogen-free medium in the presence of 25 nM [^3H]-T16 (69 Ci/mmol) for different time periods (1, 2, 3, 4, 5, 7, 10 and 15 min) after which 5 ml of cold PBS was added to stop the reaction. Kinetic parameters were determined after 4 min of incubation at 30° C. in the presence of [^3H]-T16 at concentrations ranging from 25 nM to 75 μM (69 Ci - 23 mCi/mol). The samples were centrifuged at 4° C. for 10 min at 1,200×g, the supernatants were discarded and the cells were then resuspended in 5 ml of cold PBS. The reaction was terminated by filtering the cell suspension through GF/C membranes that were pretreated with 15 ml of 0.05% polyethyleneimine (PEI). The filters were washed twice with 5 ml of cold PBS, air dried, and analyzed in a scintillation counter. The cellular accumulation ratio (CAR) was calculated as previously described for T16 and G25 (Biagini, et al., 2003; Wengelnik, et al., 2002).

[3] = target: T1, recombinant PtdSer decarboxylase PfPsd1 (Plasmodium falciparum, UniProt Q9GPP8); assay: PtdSer decarboxylase assay with recombinant enzyme; format: biochemical; conditions: increasing concentrations of G25
T1 construct: made in house
T1 sequence (Q9GPP8 1-362): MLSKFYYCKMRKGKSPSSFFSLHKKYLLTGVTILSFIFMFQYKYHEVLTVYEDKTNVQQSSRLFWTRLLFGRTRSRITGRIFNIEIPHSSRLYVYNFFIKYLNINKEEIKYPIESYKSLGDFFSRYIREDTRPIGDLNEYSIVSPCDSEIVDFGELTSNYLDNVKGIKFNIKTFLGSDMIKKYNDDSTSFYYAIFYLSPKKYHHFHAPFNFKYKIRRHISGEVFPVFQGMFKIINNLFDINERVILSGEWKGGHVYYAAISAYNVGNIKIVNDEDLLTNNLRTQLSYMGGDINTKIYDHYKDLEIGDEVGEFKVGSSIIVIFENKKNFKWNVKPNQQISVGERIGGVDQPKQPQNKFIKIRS
Procedure: FIG. 11A. Effect of G25 on the activity of purified recombinant PfPsd1 enzyme. PfPsd1 activity was determined as described in Materials and Methods by measuring the amount of [^14C]-PtdEtn formed from PtdSer. TLC analysis of PfPsd1-mediated conversion of PtdSer into PtdEtn in the absence and presence of increasing concentrations of G25 was performed.
FIG. 11B. Values are means±standard deviation of triplicate determination of two independent experiments.
Recombinant P. falciparum PtdSer decarboxylase was purified as described by Baunaure and colleagues (Baunaure, et al., 2004) The assay mixture (0.3 ml) contained 0.1 M potassium phosphate buffer (pH 6.8), 0.06% Triton X-100 (w/v), 200 μM L-[dipalmitoyl]phosphatidyl[3-^14C]-serine (1.35 mCi/mmol; Amersham), and the enzyme fraction containing recombinant protein of P. falciparum (240 μg). After incubation at 37° C. for 1 hour, the reaction was terminated by the addition of 400 μl chloroform. Chloroform-soluble materials were extracted, dried, and then dissolved in chloroform/methanol (9:1, v/v). Phospholipids were separated by Thin Layer Chromatography as described above. The radioactive phospholipids were localized and identified using appropriate standards, and radioactivity was quantified using the phosphoimager analyzer (Molecular Dynamics).
G25 inhibits the activity of recombinant P. falciparum PtdSer decarboxylase. […]

P. falciparum = conditions: cited from earlier work

C[N+]1(CCCCCCCCCCCCCCCC[N+]2(C)CCCC2)CCCC1.[Br-].[Br-] [G25, 1,16-hexadecamethylenebis[N-methylpyrrolidinium]dibromide]
Inhibition of S. cerevisiae growth (in words) (S. cerevisiae; structure-activity comparison, Examples 2-4): inhibited | IC50 (S. cerevisiae; wild-type strain BY4741, 1×10^4 cells/ml, liquid medium, 30° C., 16 h, read-out: IC50, inhibition of yeast growth): 2.5 µM | IC50 (C. albicans strain BWP17): ~5 µM | IC50 [1]: 8.1 µM | inhibition of choline transport ([2]; 20-fold excess over [methyl-3H]-choline): 50% | inhibition of choline transport ([2]; 100-fold excess over [methyl-3H]-choline): 84% | activity of recombinant PfPsd1 [3]: steady decrease in the activity | IC50 (P. falciparum; in vitro, literature, read-out: IC50, P. falciparum): 0.0012 µM | IC90/IC50 ratios (P. falciparum; multidrug resistant laboratory and clinical isolates): less than 3
